SMILES strings stand for the structures.

For the assay, the target named is Gamma-aminobutyric acid type B receptor subunit 1 (UniProt Q9Z0U4).
Sequence of Gamma-aminobutyric acid type B receptor subunit 1 (Q9Z0U4 whole entry): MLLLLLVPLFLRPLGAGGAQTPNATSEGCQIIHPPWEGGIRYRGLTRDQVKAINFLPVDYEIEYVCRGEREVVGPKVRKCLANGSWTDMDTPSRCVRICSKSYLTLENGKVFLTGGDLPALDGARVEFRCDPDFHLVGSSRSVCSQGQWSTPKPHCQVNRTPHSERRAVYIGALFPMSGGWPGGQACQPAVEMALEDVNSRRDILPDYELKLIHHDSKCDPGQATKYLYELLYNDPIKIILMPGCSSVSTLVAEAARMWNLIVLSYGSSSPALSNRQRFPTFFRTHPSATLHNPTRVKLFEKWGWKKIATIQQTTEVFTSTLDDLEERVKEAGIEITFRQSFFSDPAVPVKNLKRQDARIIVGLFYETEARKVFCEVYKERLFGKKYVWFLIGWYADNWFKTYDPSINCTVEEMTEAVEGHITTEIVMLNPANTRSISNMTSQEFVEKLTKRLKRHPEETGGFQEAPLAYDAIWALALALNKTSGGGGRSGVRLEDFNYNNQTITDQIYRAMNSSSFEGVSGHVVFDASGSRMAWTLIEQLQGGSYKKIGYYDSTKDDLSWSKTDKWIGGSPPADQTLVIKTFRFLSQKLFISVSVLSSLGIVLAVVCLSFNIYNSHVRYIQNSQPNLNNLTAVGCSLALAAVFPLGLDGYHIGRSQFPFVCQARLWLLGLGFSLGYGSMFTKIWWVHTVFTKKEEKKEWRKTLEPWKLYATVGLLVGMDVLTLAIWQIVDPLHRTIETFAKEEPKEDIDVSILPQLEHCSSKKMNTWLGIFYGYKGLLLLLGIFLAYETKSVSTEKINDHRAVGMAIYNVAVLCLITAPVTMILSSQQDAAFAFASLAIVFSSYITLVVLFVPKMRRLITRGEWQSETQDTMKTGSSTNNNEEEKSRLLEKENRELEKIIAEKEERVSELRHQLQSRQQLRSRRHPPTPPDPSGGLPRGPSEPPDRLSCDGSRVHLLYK
The Ki is the equilibrium dissociation constant of an inhibitor or competing ligand from its target. A higher Ki goes with a looser hold on the target. `NCc1cc(=O)[nH]o1` returned a Ki of 10 nM. This counts as double-digit nanomolar.

`c1c[nH]cn1` yielded a Ki of 229 nM.

`O=C(O)[C@@H]1CCCNC1` (racemic) [Nipecotic] had a Ki above 10000 nM. With `N[C@@H]1C(=O)N2C(C(=O)O)=C(CSc3cnn[nH]3)CS[C@H]12` [CAS_37539-03-0] the figure was 51 nM; with `CC(C)(O)C1C2OC(=O)C1C1(O)CC3OC34C(=O)OC2C14C` (stereo not given) [NSC_5311359], above 10000 nM.

(Values after BindingDB's records for doi:10.1111/j.1471-4159.1979.tb04553.x (1979).)
